# Measured values taken from patent US20240216412A1, “OXIDIZED NICOTINAMIDE ADENINE DINUCLEOTIDE (NAD+) PRECURSOR TREATMENT FOR HEART FAILURE ALLEVIATION INDEPENDENT OF MITOCHONDRIAL PROTEIN DEACETYLATION” (University of Washington, priority 2022, published 2024).
# Legend:
# RXRα = experiment: Chromatin immunoprecipitation (ChIP) of RXRα at the Acadm promoter PPRE; type: in vivo; conditions: ISO mouse hearts, NR
# Method: Chromatin immunoprecipitation (ChIP). The EZ ChIP kit (EMD Millipore catalog #17-371) was used according to the manufacturer's protocol. Briefly, heart tissue was cut into small pieces using a razor blade in a petri dish on ice. The cubed tissue was incubated in fixation solution (1% formaldehye) in a conical tube and rotated at room temperature for 15 minutes to crosslink proteins and chromatin. The reaction was stopped by adding 0.125M Glycine for 5 min at room temperature. The contents were homogenized with a hand-held tissue homogenizer for 45 seconds then pelleted by centrifugation for 3 minutes at 1,250×g at 4C. The supernatant was discarded and the pellet was resuspended in 10 ml ice-cold PBS wash buffer followed by centrifugation at 1,250×g for 3 minutes. This was wash step was repeated on ice. The supernatant was discarded and the pellet resuspended in 5 ml chromatin prep buffer and incubated on ice for 10 minutes. The resuspended pellet was homogenized on ice with a dounce homogenizer for 30 strokes and then contents transferred to new conical tube on ice. The suspension was centrifuged 3 minutes at 1,250×g at 4C then supernatant discarded. The pellet was resuspended in 1 ml Chip buffer and transferred to new centrifuge tube then incubated on ice for 10 minutes. […] Purified chromatin was analyzed on a 1% agarose gel to determine the shearing efficiency. […]
# [1] = test system: NAD+ salvage pathway / NAD(H) redox in mouse heart; experiment: Cardiac NAD+/NADH determination and targeted LC-MS metabolomics in TAC hearts; type: in vivo
# Method: NAD^+/NADH determination. NAD^+ and NADH were determined in 8 mg heart tissue using BioAssay Systems EnzyChrom NAD^+/NAD Assay Kit (E2ND-100) per manufactures instructions.
# Targeted Metabolomics. Analysis of metabolites was done by The Northwest Metabolomics Research Center at the University of Washington. Briefly, aqueous metabolites for targeted LC-MS profiling of heart tissue samples were extracted from frozen heart tissue (10 mg) by precipitating in 80:20% methanol:water. After centrifugation, the supernatant was transferred to LC/MS auto sampler vials (Thermo Fisher). The protein pellet was redissolved in 0.1M NaOH and protein concentration measured for normalization. Samples were first homogenized in 200 μL purified deionized water at 4° C., and then 800 μL of cold methanol. Afterwards samples were vortexed, stored for 30 minutes at −20° C., sonicated in an ice bath for 10 minutes, centrifuged for 15 min at 14,000 rpm and 4° C., and then 600 μL of supernatant was collected from each sample. […] Samples were transferred into LC vials and placed into a temperature controlled autosampler for LC-MS analysis.
# LC-MS Assay. Targeted LC-MS metabolite analysis was performed on a duplex-LC-MS system composed of two Shimadzu UPLC pumps, CTC Analytics PAL HTC-xt temperature-controlled auto-sampler (set at 4° C.) and AB Sciex 6500+ Triple Quadrupole MS equipped with ESI ionization source (2). UPLC pumps were connected to the autosampler in parallel and were able to perform two chromatography separations independently from each other. Each sample was injected twice on two identical analytical columns (Waters XBridge BEH Amide XP) performing separations in hydrophilic interaction liquid chromatography (HILIC) mode. While one column was performing separation and MS data acquisition in ESI+ ionization mode, the other column was getting equilibrated for sample injection, chromatography separation and MS data acquisition in ESI-mode. Each chromatography separation was 18 minutes (total analysis time per sample was 36 minutes). MS data acquisition was performed in multiple-reaction-monitoring (MRM) mode. LC-MS system was controlled using AB Sciex Analyst 1.6.3 software. Measured MS peaks were integrated using AB Sciex MultiQuant 3.0.3 software. The LC-MS assay was targeting 361 metabolites (plus 2 spiked reference internal standards). Up to 192 metabolites (plus 2 spiked standards) were measured across the study set, and over 95% of measured metabolites were measured across all the samples. In the addition to the study samples, two sets of quality control (QC) samples were used to monitor the assay performance as well as data reproducibility. One QC [QC(I)] was a pooled human serum sample used to monitor system performance and the other QC [QC(S)] was pooled study samples and this QC was used to monitor data reproducibility. Each QC sample was injected per every 10 study samples. The data were well reproducible with a median CV of 7.0%.
# [2] = test system: fatty acid oxidation (acylcarnitines) in heart; experiment: Cardiac acyl-carnitine profiling (LC/MS); type: in vivo, mouse
# Method: Cardiac acyl-carnitines. Metabolites were extracted from frozen heart tissue (10 mg) by precipitating in 80:20% methanol:water following the addition of 1 ug/ml internal standard (C16 palmitoylcarnitine, d3, Cambridge Isotope Laboratories, Inc.). After centrifugation, the supernatant was transferred to LC/MS auto sampler vials (Thermo Fisher). The protein pellet was redissolved in 0.1 M NaOH and protein concentration measured for normalization.
# Acyl-carnitines were analyzed using a Triple TOF—5600 (AB Sciex) series mass spectrometer in line with a Water Acquity I-class UPLC. Chromatographic separation was achieved using an Acquity UPLC BEH HILIC, 1.7 micron, 2.1×100 mm column (Waters) with a flow rate of 0.5 ml/min. Total run time was 22 minutes. The mobile phase was composed of two solvents: A=5 mM Ammonium Acetate in 95:5 acetonitrile:water and B=5 mM Ammonium Acetate in 50:50 acetonitrile:water using the following gradient.
# Samples were analyzed in positive electrospray ionization (ESI+) with a mass range from 50-1000 Da. […] Additional acyl-carnitines were identified by their m/z value as compared to theoretical values determined by the molecular formula ±0.003 D. Peak areas intensities were normalized to protein concentration.
smiles,measurement,setting,value
"NC(=O)c1ccc[n+]([C@@H]2O[C@H](CO)[C@@H](O)[C@H]2O)c1 [NR, Nicotinamide riboside chloride]",Binding occupancy of RXRα to the PPARα response element (PPRE) in the Acadm promoter,RXRα,increased
same,Markers of lipid oxidation (oxidized glutathione),[1]; TAC mice,decreased
same,Cardiac levels of NAD(H),[1]; WT and Sirt3Ko hearts,increased
same,Cardiac levels of methyl-nicotinamide (MeNAM),[1]; WT and Sirt3Ko hearts,increased
same,Cardiac levels of nicotinamide (NAM),[1]; WT and Sirt3Ko hearts,increased
same,NAD+/NADH ratio,"[1]; both genotypes, after TAC",normalized
same,"Metabolites indicative of myocardial fibrosis (hydroxyproline, putrescine, spermidine)","[1]; myocardial tissue of TAC hearts, vs vehicle",reduced
same,Tissue content of lipid derived acylcarnitines and hydroxy-acylcarnitines,"[2]; NR treated TAC hearts, to level similar to WT-Sham",increased
same,C16 (palmitoylcarnitine) levels,[2]; WT and Sirt3ko NR treated TAC hearts vs vehicle,increased
